Results published in PubChem BioAssay AID1117323.
Active and inactive are the calls of the source. The rule behind the calls is not given here.

system: SNU-C1 viability, CellTiter-Glo ATP luminescence; experiment: SNU-C1 cell viability reduction, dose response, CellTiter-Glo luminescence (AID 1117323)

| SMILES | IC50 |
| --- | --- |
| O=C1[O][Bi][O]c2ccccc21 | 15400 nM (inactive) |
| O=C(O)C1(C(=O)O)CCC1.[NH2-].[NH2-].[Pt+2] | > 20000 nM (inactive) |
| CC[C@]1(O)C[C@@H]2CN(CCc3c([nH]c4ccccc34)[C@@](C(=O)OC)(c3cc4c(cc3OC)N(C)[C@H]3[C@@](O)(C(=O)OC)[C@H](OC(C)=O)[C@]5(CC)C=CCN6CC[C@]43[C@@H]65)C2)C1 | > 20000 nM (inactive) |
| OCCN1CCN(CC/C=C2/c3ccccc3Sc3ccc(C(F)(F)F)cc32)CC1 | 1030 nM |
| CC(=O)[O][Hg][c]1ccccc1 | 192 nM |
| CCCCCCCCCCCCCC[N+](C)(C)C | 5.17 nM |
| Cc1ccc([N+](=O)[O-])[c]2c1[O][Hg]2 | 202 nM |
